Measured values taken from patent US8153413B2, “High alkaline protease and use thereof” (Japan Agency for Marine-Earth Science and Technology, priority 2004, dated 2012).
Entries after “also recorded” stand apart in the source; their conditions may differ. Like-named read-outs stand apart in the source and are kept apart here. * marks the point of attachment. butyroxycarboxy = not defined here; pNA = O=[N+]([O-])c1ccc(N*)cc1

Key:
Format in all cases: biochemical, Alkaliphillus transvaalensis
[1] = test system: alkaline protease ALTP; conditions: for Residual activity (%): pH 10
[2] = test system: alkaline protease ALTP; assay: Influence of inhibitors on residual activity
Experimental: Each inhibitor was added to 20 mmol/L phosphate buffer (pH 7) at a predetermined concentration, and the invention enzyme was added thereto. The solution was warmed at 30° C. for 20 minutes. Subsequently, the resulting solution was approximately diluted with 50 mmol/L borate buffer (pH 10), and the residual activity was measured.

[3] = test system: alkaline protease ALTP; assay: Influence of surfactants on residual activity (casein method); conditions: for Residual activity (%): pH 9.0, 40° C., 4 hours, time 0 = 100%
Experimental: Influence of surfactants on alkaline protease ALTP of the invention was examined. That is, the invention enzyme solution was added to 0.1 mol/L Tris-hydrochloride buffer (pH 9.0), and each of various surfactants shown in Table 4 was added to the solution. The treatment was conducted at 40° C. for 4 hours. Subsequently, the solution was properly diluted with 50 mmol/L borate buffer (pH 10.5) containing 2 mmol/L calcium chloride, and the residual activity was measured by the casein method. The residual activity was expressed in terms of a relative value when an activity value (treatment time 0 minute) immediately after addition of the enzyme to each sample was defined as 100%.

[4] = test system: alkaline protease ALTP; assay: Action on synthetic substrates (synthetic substrate method, p-nitroaniline release); conditions: for Relative activity (%): activity to AAPF = 100%, pH 10.0, 30° C., 10 minutes
Experimental: 0.9 ml of 100 mmol/L borate buffer (pH=10.0, containing 2 mmol/L calcium chloride) was mixed with 0.05 ml of a 50 mmol/L synthetic substrate solution (solution obtained by dissolving a p-nitroanilide derivative of an oligopeptide in dimethyl sulfoxide), and the mixture was warmed at 30° C. for 5 minutes. Then, 0.05 ml of the enzyme solution was added, and a reaction was conducted at 30° C. for 10 minutes. 2 ml of a 5% (w/v) citric acid solution was added to terminate the reaction. Absorbance at 420 nm was measured with a spectrophotometer to quantify liberated p-nitroaniline.
Herein, one unit (PU) of the enzyme referred to an amount of an enzyme required to liberate 1 μmol of p-nitroaniline for 1 minute under the foregoing reaction conditions.
Reactivity of alkaline protease ALTP of the invention with each synthetic substrate was measured using synthetic oligopeptide substrates shown in Table 6.
0.9 ml of 100 mmol/L borate buffer (pH=10.0, containing 2 mmol/L calcium chloride) was mixed with 0.05 ml of a 50 mmol/L synthetic substrate solution shown in Table 6. After the mixture was warmed at 30° C. for 5 minutes, 0.05 ml of the enzyme solution was added thereto, and the reaction was conducted at 30° C. for 10 minutes. 2 ml of a 5% (w/v) citric acid solution was added to terminate the reaction. Absorbance at 420 nm was measured using a spectrophotometer, and p-nitroaniline liberated was quantified.
Target sequence in this assay (as listed by the source): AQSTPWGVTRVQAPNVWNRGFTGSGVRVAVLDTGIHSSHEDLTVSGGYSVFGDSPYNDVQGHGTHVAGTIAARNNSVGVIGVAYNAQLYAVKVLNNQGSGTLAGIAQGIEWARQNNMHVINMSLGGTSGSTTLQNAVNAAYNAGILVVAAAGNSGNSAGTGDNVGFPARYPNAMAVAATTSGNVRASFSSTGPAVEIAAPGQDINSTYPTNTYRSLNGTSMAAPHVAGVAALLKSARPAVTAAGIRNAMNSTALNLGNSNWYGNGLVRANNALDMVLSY

[5] = inhibitor 0.1 mM, pH 7, 30° C., 20 minutes
[6] = inhibitor 1.0 mM, pH 7, 30° C., 20 minutes

Compound: [Ba+2].[Cl-].[Cl-] [BaCl2]
- inhibition by metal ion ([1]; concentration of 1 mM): not inhibited
- Residual activity (%) [1]: 100%

Compound: CC(C)C[C@H](NC(=O)[C@@H](O)[C@H](N)Cc1ccccc1)C(=O)O [Bestatin]
- Residual activity (%) [2, 5]: 106%

Compound: [Ca+2].[Cl-].[Cl-] [CaCl2]
- inhibition by metal ion ([1]; concentration of 1 mM): not inhibited
- Residual activity (%) [1]: 118%

Compound: [Cl][Cd][Cl] [CdCl2]
- inhibition by metal ion ([1]; concentration of 1 mM): not inhibited
- Residual activity (%) [1]: 100%

Compound: CC(C)C[C@H](NC(=O)[C@@H](NC(=O)N[C@@H](Cc1ccccc1)C(=O)O)[C@@H]1CCN=C(N)N1)C(=O)N[C@H](C=O)Cc1ccccc1 [Chymostatin]
- inhibition ([2]; 30 ppm): completely inhibited
- Residual activity (%) ([2]; inhibitor 30 ppm, pH 7, 30° C., 20 minutes): 0%

Compound: [Cl-].[Cl-].[Co+2] [CoCl2]
- inhibition by metal ion [1]: not inhibited
- Residual activity (%) [1]: 92%

Compound: [Cl][Cu][Cl] [CuCl2]
- inhibition by metal ion ([1]; concentration of 1 mM): not inhibited
- Residual activity (%) [1]: 109%

Compound: O=C(O)CN(CCN(CC(=O)O)CC(=O)O)CC(=O)O [EDTA, ethylenediamine tetraacetic acid]
- inhibition ([2]; 100 mM): little inhibited; also recorded: not inhibited
- Residual activity (%) ([2]; inhibitor 100 mM, pH 7, 30° C., 20 minutes): 100%

Compound: [Cl][Fe][Cl] [FeCl2]
- Residual activity (%) [1]: 120%

Compound: [Cl][Fe]([Cl])[Cl] [FeCl3]
- Residual activity (%) [1]: 110%

Compound: [Cl][Hg][Cl] [HgCl2]
- inhibition by metal ion ([1]; concentration of 1 mM): inhibited
- Residual activity (%) [1]: 15%

Compound: O=C(O)CI [Iodine acetate]
- Residual activity (%) ([2]; pH 7): 104%

Compound: [Cl-].[K+] [KCl]
- inhibition by metal ion ([1]; concentration of 1 mM): not inhibited
- Residual activity (%) [1]: 111%

Compound: CC(=O)N[C@@H](CC(C)C)C(=O)N[C@@H](CC(C)C)C(=O)N[C@H](C=O)CCCNC(=N)N [Leupeptin]
- Residual activity (%) [2, 5]: 100%

Compound: [Cl-].[Li+] [LiCl2]
- inhibition by metal ion ([1]; concentration of 1 mM): not inhibited
- Residual activity (%) [1]: 114%

Compound: [Cl-].[Cl-].[Mg+2] [MgCl2]
- inhibition by metal ion ([1]; concentration of 1 mM): not inhibited
- Residual activity (%) [1]: 105%

Compound: [Cl][Mn][Cl] [MnCl2]
- inhibition by metal ion ([1]; concentration of 1 mM): not inhibited
- Residual activity (%) [1]: 113%

Compound: O=C1CCC(=O)N1Br [N-bromosuccinic acid imide]
- Residual activity (%) [2, 6]: 104%

Compound: [Cl-].[Na+] [NaCl]
- inhibition by metal ion [1]: not inhibited
- Residual activity (%) [1]: 112%

Compound: [Cl][Ni][Cl] [NiCl2]
- inhibition by metal ion ([1]; concentration of 1 mM): not inhibited
- Residual activity (%) [1]: 94%

Compound: O=S(=O)(F)Cc1ccccc1 [PMSF, phenylmethanesulfonyl fluoride]
- inhibition ([2]; 1 mM): completely inhibited
- Residual activity (%) [2, 6]: 0%

Compound: [Cl][Pb][Cl] [PbCl2]
- inhibition by metal ion ([1]; concentration of 1 mM): not inhibited
- Residual activity (%) [1]: 115%

Compound: [Cl][Sn][Cl] [SnCl2]
- inhibition by metal ion ([1]; concentration of 1 mM): not inhibited
- Residual activity (%) [1]: 108%

Compound: CCCCCCCCCCCCOS(=O)(=O)[O-].[Na+] [Sodium dodecyl sulfate]
- inhibition ([2]; 1 mM): little inhibited
- inhibition of activity by surfactant [3]: not inhibited
- Residual activity (%) ([3]; surfactant 10.0%): 104%

Compound: [Cl-].[Cl-].[Zn+2] [ZnCl2]
- inhibition by metal ion ([1]; concentration of 1 mM): not inhibited
- Residual activity (%) [1]: 121%

Compound: O=C(O)c1cc[c]([Hg][Cl])cc1 [p-chloromercuribenzoic acid]
- inhibition ([2]; 1 mM): little inhibited

Compound: NC(N)=O [urea]
- inhibition ([2]; 0.5 M): little inhibited

Compound: Linear sodium alkylbenzene sulfonate
- inhibition of activity by surfactant [3]: not inhibited
- Residual activity (%) ([3]; surfactant 1.0%): 98%

Compound: N- succinyl-Gly-Gly-Phe-p-nitroanilide (GGF; HELM PEPTIDE1{[O=C(O)CCC(=O)[*:2]].G.G.F.[O=[N+]([O-])c1ccc(N[*:1])cc1]}$$$$V2.0; SMILES O=C(O)CCC(=O)NCC(=O)NCC(=O)N[C@@H](Cc1ccccc1)C(=O)Nc1ccc([N+](=O)[O-])cc1) [synthetic substrate]
- activity to further synthetic substrates [4]: showed activity

Compound: N-carboxybenzoxy-Phe-Val-Arg-p-nitroanilide (carboxybenzoxy-Phe-Val-Arg-pNA) [Z-FVR, synthetic substrate]
- activity to further synthetic substrates [4]: showed activity

Compound: N-glutaryl-Ala-Ala-Pro-Leu-p-nitroanilide (AAPL; HELM PEPTIDE1{[O=C(O)CCCC(=O)[*:2]].A.A.P.L.[O=[N+]([O-])c1ccc(N[*:1])cc1]}$$$$V2.0; SMILES CC(C)C[C@H](NC(=O)[C@@H]1CCCN1C(=O)[C@H](C)NC(=O)[C@H](C)NC(=O)CCCC(=O)O)C(=O)Nc1ccc([N+](=O)[O-])cc1) [synthetic substrate]
- Relative activity (%) [4]: 91%

Compound: N-methoxysuccinyl- Ala-Ile-Pro-Met-p-nitroanilide (AIPM; HELM PEPTIDE1{[COC(=O)CCC(=O)[*:2]].A.I.P.M.[O=[N+]([O-])c1ccc(N[*:1])cc1]}$$$$V2.0; SMILES CC[C@H](C)[C@H](NC(=O)[C@H](C)NC(=O)CCC(=O)OC)C(=O)N1CCC[C@H]1C(=O)N[C@@H](CCSC)C(=O)Nc1ccc([N+](=O)[O-])cc1) [synthetic substrate]
- Relative activity (%) [4]: 90%

Compound: N-p-tosyl-Gly-Pro-Lys-p-nitroanilide ({p‑tosyl}-Gly-Pro-Lys-pNA) [To-GPK, synthetic substrate]
- activity to further synthetic substrates [4]: showed activity

Compound: N-succinyl-Ala-Ala-Ala-p-nitroanilide [AAA]
- activity to further synthetic substrates [4]: showed activity

Compound: N-succinyl-Ala-Ala-Pro-Met-p-nitroanilide (AAPM; HELM PEPTIDE1{[O=C(O)CCC(=O)[*:2]].A.A.P.M.[O=[N+]([O-])c1ccc(N[*:1])cc1]}$$$$V2.0; SMILES CSCC[C@H](NC(=O)[C@@H]1CCCN1C(=O)[C@H](C)NC(=O)[C@H](C)NC(=O)CCC(=O)O)C(=O)Nc1ccc([N+](=O)[O-])cc1) [synthetic substrate]
- Relative activity (%) [4]: 74%

Compound: N-succinyl-Ala-Ala-Pro-Phe-p-nitroanilide [AAPF]
- Relative activity (%) [4]: 100%

Compound: N-succinyl-Ala-Ala-Val-Ala-p- nitroanilide (AAVA; HELM PEPTIDE1{[O=C(O)CCC(=O)[*:2]].A.A.V.A.[O=[N+]([O-])c1ccc(N[*:1])cc1]}$$$$V2.0; SMILES CC(C)[C@H](NC(=O)[C@H](C)NC(=O)[C@H](C)NC(=O)CCC(=O)O)C(=O)N[C@@H](C)C(=O)Nc1ccc([N+](=O)[O-])cc1) [synthetic substrate]
- Relative activity (%) [4]: 4.6%

Compound: N-succinyl-Ala-Ala-p-nitroanilide [AA]
- activity to further synthetic substrates [4]: showed activity

Compound: Polyoxyethylene alkyl alcohol
- inhibition of activity by surfactant [3]: not inhibited
- Residual activity (%) ([3]; surfactant 1.0%): 107%

Compound: Sodium alkane sulfonate
- inhibition of activity by surfactant [3]: not inhibited
- Residual activity (%) ([3]; surfactant 10.0%): 107%

Compound: Sodium polyoxyethylene alkyl sulfate
- inhibition of activity by surfactant [3]: not inhibited
- Residual activity (%) ([3]; surfactant 1.0%): 99%

Compound: Sodium α-olefin sulfonate
- inhibition of activity by surfactant [3]: not inhibited
- Residual activity (%) ([3]; surfactant 1.0%): 128%

Compound: butyroxycarboxy-Leu-Ser- Thr-Arg-p-nitroanilide (butyroxycarboxy-LSTR-pNA; reading uncertain) [synthetic substrate]
- activity to further synthetic substrates [4]: showed activity

Compound: triton X-100
- inhibition ([2]; 1%): little inhibited

Compound: α-sulfo-fatty acid ester
- inhibition of activity by surfactant [3]: not inhibited
- Residual activity (%) ([3]; surfactant 1.0%): 106%
